Data reported in PubChem BioAssay (NCI).
Where “and” joins values, the source holds several entries; their conditions need not be identical. Equal entries are not always repeated.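 All cell lines were grown in 96-well plates and treated with compound for 48 hours. GI50 is the concentration that inhibits growth by half. TGI is the concentration that stops growth completely.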

Legend:
Test in all cases: inhibition of tumour cell growth, NCI panel, 48 h
SK-MEL-5 melanoma = system: SK-MEL-5 melanoma
BT-549 breast = system: BT-549 breast
A498 renal = system: A498 renal
MDA-MB-231 breast = system: MDA-MB-231 breast
UO-31 renal = system: UO-31 renal
OVCAR-5 ovarian = system: OVCAR-5 ovarian
OVCAR-4 ovarian = system: OVCAR-4 ovarian
U251 CNS = system: U251 CNS

SMILES: CC(NNC(=S)N1CCN(c2ccccn2)CC1)c1nccc2ccccc12 (centres undefined)
- TGI (SK-MEL-5 melanoma): 12.3 µM
- TGI (BT-549 breast): 22.6 µM
- TGI (A498 renal): 17.3 µM
- TGI (MDA-MB-231 breast): 16.8 µM
- TGI (UO-31 renal): 8.34 µM
- TGI (OVCAR-5 ovarian): 14.2 µM
- TGI (OVCAR-4 ovarian): 19.2 µM
- TGI (U251 CNS): 14.3 µM

SMILES: COc1ccc(N=NC2=C(O)CCC2=O)cc1
- TGI (SK-MEL-5 melanoma): > 100 µM
- TGI (A498 renal): > 100 µM
- TGI (UO-31 renal): > 100 µM
- TGI (OVCAR-5 ovarian): > 100 µM
- TGI (OVCAR-4 ovarian): > 100 µM
- TGI (U251 CNS): > 100 µM

SMILES: CCN1CCN(c2ccc(NC(=O)Nc3nc4ccc(-c5ccccc5OC)cc4s3)cc2)CC1
- GI50 (SK-MEL-5 melanoma): 1.73 µM
- TGI (SK-MEL-5 melanoma): 3.12 µM
- GI50 (BT-549 breast): 1.88 µM
- TGI (BT-549 breast): 3.73 µM
- GI50 (A498 renal): 1.8 µM
- TGI (A498 renal): 3.61 µM
- GI50 (MDA-MB-231 breast): 1.72 µM
- TGI (MDA-MB-231 breast): 3.28 µM
- GI50 (UO-31 renal): 1.52 µM
- TGI (UO-31 renal): 2.92 µM
- GI50 (OVCAR-5 ovarian): 1.8 µM
- TGI (OVCAR-5 ovarian): 3.37 µM
- GI50 (OVCAR-4 ovarian): 1.68 µM
- TGI (OVCAR-4 ovarian): 3.31 µM
- GI50 (U251 CNS): 1.57 µM
- TGI (U251 CNS): 2.94 µM

SMILES: COc1cc2c(cc1OCC(=O)Nc1ccc(Cl)cc1C(=O)c1ccccc1Cl)N=CC1CCCN1C2=O (centres undefined)
- GI50 (SK-MEL-5 melanoma): 10 µM
- TGI (SK-MEL-5 melanoma): 21.9 µM
- GI50 (A498 renal): 12.3 µM
- TGI (A498 renal): 24.9 µM
- GI50 (MDA-MB-231 breast): 10.7 µM
- TGI (MDA-MB-231 breast): 25.7 µM
- GI50 (UO-31 renal): 7.97 µM
- TGI (UO-31 renal): 20.5 µM
- GI50 (OVCAR-5 ovarian): 24.6 µM
- TGI (OVCAR-5 ovarian): 45.5 µM
- GI50 (OVCAR-4 ovarian): 14.4 µM
- TGI (OVCAR-4 ovarian): 32.9 µM
- GI50 (U251 CNS): 6.36 µM
- TGI (U251 CNS): 19.3 µM

SMILES: C[C@@H]1CC[C@@H]2[C@@H]1[C@H](OC(=O)/C=C/C1CCCCC1)[C@]1(C3CCCCC3)C[C@@H](OC(=O)CO)[C@@]2(C)O1
- GI50 (SK-MEL-5 melanoma): 14 µM
- TGI (SK-MEL-5 melanoma): 26.6 µM
- GI50 (BT-549 breast): 0.0551 µM
- TGI (BT-549 breast): 5.7 µM
- GI50 (A498 renal): 0.0209 µM
- TGI (A498 renal): 0.0801 µM
- GI50 (MDA-MB-231 breast): 15.4 µM
- TGI (MDA-MB-231 breast): 29.6 µM
- GI50 (OVCAR-5 ovarian): 15.8 µM
- TGI (OVCAR-5 ovarian): 29.9 µM
- GI50 (OVCAR-4 ovarian): 13.1 µM
- TGI (OVCAR-4 ovarian): 26.6 µM
- GI50 (U251 CNS): 13.7 µM
- TGI (U251 CNS): 26.1 µM

SMILES: Cc1[nH]nc(C(F)(F)F)c1Cc1sc2c(c1C(=O)N1C[C@](C)(O)CO1)c(=O)n(C)c(=O)n2C(C)C
- GI50 (SK-MEL-5 melanoma): > 100 µM
- TGI (SK-MEL-5 melanoma): > 100 µM
- GI50 (BT-549 breast): > 100 µM
- TGI (BT-549 breast): > 100 µM
- GI50 (A498 renal): 47.3 µM
- TGI (A498 renal): > 100 µM
- GI50 (MDA-MB-231 breast): > 100 µM
- TGI (MDA-MB-231 breast): > 100 µM
- GI50 (UO-31 renal): > 100 µM
- TGI (UO-31 renal): > 100 µM
- GI50 (OVCAR-5 ovarian): > 100 µM
- TGI (OVCAR-5 ovarian): > 100 µM
- GI50 (OVCAR-4 ovarian): > 100 µM
- TGI (OVCAR-4 ovarian): > 100 µM
- GI50 (U251 CNS): > 100 µM
- TGI (U251 CNS): > 100 µM

SMILES: CC(C)[C@@H](C(=O)O[C@@H]1/C=C/C(=O)O[C@@H](C)CCC/C=C/[C@@H]2C[C@H](O)C[C@H]21)N(C)C
- GI50 (SK-MEL-5 melanoma): 2.25 µM
- TGI (SK-MEL-5 melanoma): 5.37 µM
- GI50 (BT-549 breast): 9.41 µM
- TGI (BT-549 breast): 32 µM
- GI50 (A498 renal): 2.54 µM
- TGI (A498 renal): 7.97 µM
- GI50 (MDA-MB-231 breast): 20.2 µM
- TGI (MDA-MB-231 breast): 63.2 µM
- GI50 (UO-31 renal): 23.1 µM
- TGI (UO-31 renal): > 100 µM
- GI50 (OVCAR-5 ovarian): 35.9 µM
- TGI (OVCAR-5 ovarian): > 100 µM
- GI50 (OVCAR-4 ovarian): 9.09 µM
- TGI (OVCAR-4 ovarian): > 61.9 µM
- GI50 (U251 CNS): 30.2 µM
- TGI (U251 CNS): > 100 µM

SMILES: c1ccc2c(N=NSc3ncnc4nc[nH]c34)c3ccccc3nc2c1
- GI50 (SK-MEL-5 melanoma): 1.16 µM
- TGI (SK-MEL-5 melanoma): 2.39 µM
- GI50 (BT-549 breast): 2.76 µM
- TGI (BT-549 breast): 8.7 µM
- GI50 (A498 renal): 1.13 µM
- TGI (A498 renal): 2.6 µM
- GI50 (MDA-MB-231 breast): 1.24 µM
- TGI (MDA-MB-231 breast): 6.11 µM
- GI50 (UO-31 renal): 1.09 µM
- TGI (UO-31 renal): 3.99 µM
- GI50 (OVCAR-5 ovarian): 1.89 µM
- TGI (OVCAR-5 ovarian): 6.3 µM
- GI50 (OVCAR-4 ovarian): 1.63 µM
- TGI (OVCAR-4 ovarian): 10.5 µM
- GI50 (U251 CNS): 1.12 µM
- TGI (U251 CNS): 10.9 µM

SMILES: COc1ccc2c3ccnc(C(F)(F)F)c3n(CCCCN)c2c1
- GI50 (SK-MEL-5 melanoma): 2.83 µM
- TGI (SK-MEL-5 melanoma): 9.05 µM
- GI50 (BT-549 breast): 3.04 µM
- TGI (BT-549 breast): 12.5 µM
- GI50 (A498 renal): 5.25 µM
- TGI (A498 renal): 18 µM
- GI50 (MDA-MB-231 breast): 8.12 µM
- TGI (MDA-MB-231 breast): 21.7 µM
- GI50 (UO-31 renal): 1.6 µM
- TGI (UO-31 renal): 8.36 µM
- GI50 (OVCAR-5 ovarian): 8.62 µM
- TGI (OVCAR-5 ovarian): 22.4 µM
- GI50 (OVCAR-4 ovarian): 11.7 µM
- TGI (OVCAR-4 ovarian): 25.5 µM
- GI50 (U251 CNS): 7.31 µM
- TGI (U251 CNS): 21.2 µM

SMILES: O=C1C2=C(C(=O)c3ccccc31)C(O)(S(=O)(=O)O)C(O)(S(=O)(=O)O)C1N=CC=CC21 (centres undefined)
- GI50 (SK-MEL-5 melanoma): 3.96 µM and 3.63 µM
- TGI (SK-MEL-5 melanoma): 16.3 µM and 14.5 µM
- GI50 (BT-549 breast): 5.88 µM and 5.04 µM
- TGI (BT-549 breast): 39.9 µM and 25.8 µM
- GI50 (A498 renal): 10.1 µM and 3.3 µM
- TGI (A498 renal): 40.1 µM and 12.7 µM
- GI50 (MDA-MB-231 breast): 14.5 µM and 4.51 µM
- TGI (MDA-MB-231 breast): > 100 µM and 46.6 µM
- GI50 (UO-31 renal): 2.46 µM and 2.19 µM
- TGI (UO-31 renal): 27 µM and 13 µM
- GI50 (OVCAR-5 ovarian): 8.7 µM and 9.31 µM
- TGI (OVCAR-5 ovarian): > 100 µM and 45.7 µM
- GI50 (OVCAR-4 ovarian): 3.66 µM and 2.99 µM
- TGI (OVCAR-4 ovarian): > 100 µM
- GI50 (U251 CNS): 3.85 µM and 2.69 µM
- TGI (U251 CNS): 28.8 µM and 17.8 µM

SMILES: COC(=O)Nc1nc2ccc(C(=O)c3cccc(I)c3)cc2[nH]1
- GI50 (SK-MEL-5 melanoma): 0.068 µM
- TGI (SK-MEL-5 melanoma): 2.31 µM
- GI50 (BT-549 breast): 0.16 µM
- TGI (BT-549 breast): 6.57 µM
- GI50 (A498 renal): 0.0434 µM
- TGI (A498 renal): 0.614 µM
- GI50 (MDA-MB-231 breast): 0.166 µM
- TGI (MDA-MB-231 breast): 5.52 µM
- GI50 (UO-31 renal): 0.316 µM
- TGI (UO-31 renal): 17.2 µM
- GI50 (OVCAR-5 ovarian): 0.173 µM
- TGI (OVCAR-5 ovarian): 17 µM
- GI50 (OVCAR-4 ovarian): 0.818 µM
- TGI (OVCAR-4 ovarian): 15.3 µM
- GI50 (U251 CNS): 0.0559 µM
- TGI (U251 CNS): 12.3 µM
